Test system: caspase-3
Test: ELISA immunoassay, active caspase-3 level
Assay type: cell-based, human
Conditions: for increase of caspase-3 level vs control: MCF-7 cells; for Caspase-3: active caspase-3, MCF-7 cells, IC50 concentration, 48 h
Protocol: Moreover, their effect on the level of caspase-3; the executioner caspase and p53 was evaluated in the MCF-7 cell line. […] In addition, they augmented the level of p53 by 15.4- and 11.75-fold, respectively in comparison to the control (Table 5, Figure 3).
Effects of treatment of breast cancer MCF-7 cells with bis-indoles 7e and 9a on the expression levels of the pro-apoptotic markers (Bax, caspase-3, and p53) in addition to the anti-apoptotic protein Bcl-2 marker was assessed by the use of ELISA colorimetric kits as per the manufacturer’s instructions, as described earlier.
The levels of the pro-apoptotic markers (Bax, caspase-3 and p53) as well as the anti-apoptotic marker Bcl-2 were determined using ELISA colorimetric kits per the manufacturer’s instructions. Breast cancer MCF-7 cells were cultured as a monolayer in T-25 flasks and were seeded to attain 30% confluency prior to treatment. Cells were […]
At the end of treatment, cells were collected via trypsinization and centrifuged at 10,000 rpm. The pellet was then rinsed with PBS and lysed in RIPA lysis buffer at 4 °C for 45 min, then centrifuged at 14,000 rpm for 20 min to remove the cellular debris. Lysates were then collected and stored at −80 °C for later protein determination using Pierce BCA Protein Assay Kit according to manufacturer’s recommendations.
The cell lysate was diluted 10 times, and 100 μL ([…]) was added to the wells of four separate microtiter plates for the four ELISA kits that were pre-coated with primary antibodies specific to Bax, Bcl-2, caspase-3 and p53 proteins, respectively. A secondary biotin-linked antibody specific to the protein captured by the primary antibody was further added to bind the captured protein, forming a “sandwich” of specific antibodies around the desired protein in the cell lysate. The streptavidin-HRP complex was then used to bind the biotin-linked secondary antibody through its streptavidin portion. The HRP domain reacted with the added TMB substrate to form a colored product that measured at 450 nm by a plate reader ChroMate-4300 after the reaction was terminated via the addition of stop solution. […]

SMILES | increase of caspase-3 level vs control [fold] | Caspase-3 [pg/mg]
O=C(Cc1c[nH]c2ccccc12)NN=C1C(=O)Nc2ccc([N+](=O)[O-])cc21 [Compound 7e, 2-(1H-Indol-3-yl)-N′-(5-nitro-2-oxoindolin-3-ylidene)acetohydrazide] | 11.7 | 409.2 ± 17.2
C=CCN1C(=O)C(=NNC(=O)Cc2c[nH]c3ccccc23)c2ccccc21 [Compound 9a, N′-(1-Allyl-2-oxoindolin-3-ylidene)-2-(1H-indol-3-yl)acetohydrazide] | 9.5 | 331.0 ± 12.5

Source: article PMC7230731 (Marine Drugs, 2020)
